In US20150105252A1, “SUBSTITUTED PYRAZOLES AS HERBICIDES” (E I DU PONT DE NEMOURS AND COMPANY, priority 2013, published 2015):

Experiments:
waterhemp = test: Test C preemergence; assay type: in vivo, Amaranthus rudis
Description: (§1) Seeds of plant species selected from blackgrass (Alopecurus myosuroides), ryegrass, Italian (Italian ryegrass, Lolium multiflorum), wheat (winter wheat, Triticum aestivum), galium (catchweed bedstraw, Galium aparine), corn (Zea mays), crabgrass, large (large crabgrass, Digitaria sanguinalis), foxtail, giant (giant foxtail, Setaria faberii), johnsongrass (Sorghum halepense), lambsquarters (Chenopodium album), morningglory (Ipomoea coccinea), nutsedge, yellow (yellow nutsedge, Cyperus esculentus), pigweed (redroot pigweed, Amaranthus retroflexus), ragweed (common ragweed, Ambrosia elation), soybean (Glycine max), barnyardgrass (Echinochloa crus-galli), oilseed rape (Brassica napus), waterhemp (common waterhemp, Amaranthus rudis), oat, wild (wild oat, Avena fatua), kochia (Kochia scoparia), Surinam grass (Brachiaria decumbens), foxtail, green (green foxtail, Setaria viridis), goosegrass (Eleusine indica), bromegrass, downy (downy bromegrass, Bromus tectorum), nightshade (eastern black nightshade, Solanum ptycanthum), cocklebur (common cocklebur, Xanthium strumarium), cupgrass, woolly (woolly cupgrass, Eriochloa villosa), bermudagrass (Cynodon dactylon), sunflower, (common oilseed sunflower, Helianthus annuus), Russian thistle (Salsola kali), and velvetleaf (Abutilon theophrasti) were planted into a blend of loam soil and sand and treated preemergence with test chemicals formulated in a non-phytotoxic solvent mixture which included a surfactant.
(§2) At the same time, plants selected from these crop and weed species and also chickweed (common chickweed, Stellaria media), canarygrass (littleseed canarygrass, Phalaris minor), and deadnettle (henbit deadnettle, Lamium amplexicaule), were planted in pots containing Redi-Earth® planting medium (Scotts Company, 14111 Scottslawn Road, Marysville, Ohio 43041) comprising spaghnum peat moss, vermiculite, wetting agent and starter nutrients and treated with postemergence applications of test chemicals formulated in the same manner. Plants ranged in height from 2 to 18 cm (1- to 4-leaf stage) for postemergence treatments. Treated plants and controls were maintained in a greenhouse for 13 to 15 days, after which time all species were compared to controls and visually evaluated. Plant response ratings, summarized in Table C, are based on a scale of 0 to 100 where 0 is no effect and 100 is complete control. A dash (-) response means no test result.

corn [1] = test: Test A postemergence; assay type: in vivo, Zea mays
How it was run: (§3)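 Pre- and postemergence greenhouse test; loam+sand; cpd in non-phytotox. solvent/surfactant; post at 1–2 leaf, 2–10 cm; visual score ~10 d, 0 = none, 100 = complete control.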

galium [2] = test: Test C postemergence; assay type: in vivo, Galium aparine
How it was run: (§4)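 Visual rating, 0–100 scale (0 no effect, 100 complete control), vs untreated controls after 13–15 d greenhouse. Pre: seeds in loam/sand, treated at sowing. Post: plants in peat-based mix, 1- to 4-leaf (2–18 cm). Solvent + surfactant formulation, non-phytotoxic.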

corn [3] = test: Test C preemergence; assay type: in vivo, Zea mays
How it was run: as §4

crabgrass, large [4] = test: Test A postemergence; assay type: in vivo, Digitaria sanguinalis
How it was run: as §3

morningglory [5] = test: Test C postemergence; assay type: in vivo, Ipomoea coccinea
How it was run: as §4

crabgrass, large [6] = test: Test A preemergence; assay type: in vivo, Digitaria sanguinalis; details: 0 to 100 scale
How it was run: as §3

wheat = test: Test A preemergence; assay type: in vivo, Triticum aestivum; details: preemergence
How it was run: as §3

galium [7] = test: Test C preemergence; assay type: in vivo, Galium aparine
How it was run: as §4

foxtail, giant [8] = test: Test A postemergence; assay type: in vivo, Setaria faberii
How it was run: as §3

nutsedge, yellow = test: Test C preemergence; assay type: in vivo, Cyperus esculentus
How it was run: as §4

barnyardgrass = test: Test C postemergence; assay type: in vivo, Echinochloa crus-galli
Description: as §1, §2

morningglory [9] = test: Test A postemergence; assay type: in vivo, Ipomoea spp.
How it was run: as §3

foxtail, giant [10] = test: Test C postemergence; assay type: in vivo, Setaria faberii
Description: as §1, §2

blackgrass = test: Test C postemergence; assay type: in vivo, Alopecurus myosuroides
Description: as §1, §2

[11] = preemergence, 31 g ai/ha, scale 0 to 100 (0 no effect, 100 complete control), 13 to 15 days
[12] = preemergence, 62 g ai/ha, 13 to 15 days, scale 0 to 100, 0 = no effect, 100 = complete control
[13] = preemergence, 125 g ai/ha, scale 0 to 100, 0 is no effect, 100 is complete control
[14] = Postemergence, 500 g ai/ha, visual rating after approx. 10 days, 0 to 100 scale (0 no effect, 100 complete control)
[15] = postemergence, 125 g ai/ha, about 10 days, visual rating on 0 to 100 scale (0 no effect, 100 complete control)
[16] = Postemergence, 31 g ai/ha, visually evaluated after 13 to 15 days
[17] = postemergence, 62 g ai/ha, scale 0 to 100
[18] = postemergence, 250 g ai/ha, scale 0 to 100 (0 no effect, 100 complete control)
[19] = postemergence, 125 g ai/ha, scale 0 to 100, 0 no effect, 100 complete control

CCc1cc(C(=O)NC2CC2)nn1Cc1ccnc(C(F)(F)F)c1 [Compound 76]
40: Corn plant response rating (corn [3]; [11]) | Nutsedge, Yellow plant response rating (nutsedge, yellow; [11])
10: Plant response rating, Blackgrass (blackgrass; [18])
30: Wheat plant response rating (wheat; 125 g ai/ha, visual injury, 0 to 100 scale, approx. 10 days)
15: Plant response rating, Barnyardgrass (barnyardgrass; [19])
70: Plant response rating (scale of 0 to 100 where 0 is no effect and 100 is complete control), Galium (galium [2]; [16]) | Plant response rating, Nutsedge, Yellow (nutsedge, yellow; [12]) | Morningglory plant response rating (morningglory [9]; [15])
80: Corn plant response rating (corn [1]; [15]) | Plant response rating, Corn (corn [3]; [12]) | Crabgrass, Large plant response rating (crabgrass, large [4]; [15]) | Foxtail, Giant plant response rating (foxtail, giant [8]; [15])
98: Waterhemp plant response rating (waterhemp; [11]) | Plant response rating, Morningglory (morningglory [5]; [18]) | Galium plant response rating (galium [7]; [11]) | Plant response rating (scale of 0 to 100), Nutsedge, Yellow (nutsedge, yellow; Preemergence, 250 g ai/ha)
5: Plant response rating (scale of 0 to 100 where 0 is no effect and 100 is complete control), Barnyardgrass (barnyardgrass; [16]) | Barnyardgrass plant response rating (barnyardgrass; [17]) | Plant response rating (scale of 0 to 100 where 0 is no effect and 100 is complete control), Blackgrass (blackgrass; [16]) | Blackgrass plant response rating (blackgrass; [17]) | Plant response rating, Blackgrass (blackgrass; [19])
100: Plant response rating (scale of 0 to 100), Waterhemp (waterhemp; Preemergence, 250 g ai/ha) | Plant response rating, Waterhemp (waterhemp; [12]) | Waterhemp plant response rating (waterhemp; [13]) | Plant response rating (scale of 0 to 100), Corn (corn [3]; Preemergence, 250 g ai/ha) | Corn plant response rating (corn [3]; [13]) | Crabgrass, Large plant response rating (crabgrass, large [4]; [14]) | Crabgrass, Large plant response rating (crabgrass, large [6]; Preemergence, 500 g ai/ha, 0 no effect, 100 complete control) | Plant response rating (scale of 0 to 100), Galium (galium [7]; Preemergence, 250 g ai/ha) | Plant response rating, Galium (galium [7]; [12]) | Galium plant response rating (galium [7]; [13]) | Foxtail, Giant plant response rating (foxtail, giant [8]; [14]) | Morningglory plant response rating (morningglory [9]; [14])
90: Corn plant response rating (corn [1]; [14]) | Plant response rating, Galium (galium [2]; [18]) | Plant response rating, Galium (galium [2]; [19]) | Crabgrass, Large plant response rating (crabgrass, large [6]; preemergence, 125 g ai/ha, visual injury, approx. 10 days) | Wheat plant response rating (wheat; 500 g ai/ha, visual injury after approx. 10 days, 0 to 100 scale (0 no effect, 100 complete control)) | Nutsedge, Yellow plant response rating (nutsedge, yellow; [13])
85: Plant response rating, Morningglory (morningglory [5]; [19]) | Plant response rating, Foxtail, Giant (foxtail, giant [10]; [18])
20: Plant response rating (scale of 0 to 100 where 0 is no effect and 100 is complete control), Foxtail, Giant (foxtail, giant [10]; [16]) | Foxtail, Giant plant response rating (foxtail, giant [10]; [17])
65: Plant response rating, Foxtail, Giant (foxtail, giant [10]; [19])
75: Galium plant response rating (galium [2]; [17]) | Plant response rating (scale of 0 to 100 where 0 is no effect and 100 is complete control), Morningglory (morningglory [5]; [16]) | Morningglory plant response rating (morningglory [5]; [17])
60: Plant response rating, Barnyardgrass (barnyardgrass; [18])
